Patent publication US20030104507A1, “Method for detection of ATP” (priority 2001, published 2003)

Tested on: ATPase activity endogenous to L929 cell lysate
Assay: Detergent inhibition of ATPase endogenous to L929 cell lysate (ATP remaining by luciferase luminescence, 22° C.)
Format: biochemical
Set-up: key to Relative ATPase Activity, slope det/slope lysate: slope with detergent / slope without; ≥1.0 = 100% activity, 0.5 = 50%
Description: Three separate detergents in each of four detergent classes were tested: anionic [SDS (Sodium dodecyl sulfate), Bioterge (an α olefin sulfate), and sodium deoxycholate], nonionic [TRITON X-100, BigCHAP (N,N-bis(3-D-Gluconamidopropyl)cholamide) and THESIT (polyethylene glycol 400 dodecyl ether, Fluka, #88315)], cationic [BDDABr (Benzyldimethyldodecylammonium bromide), CTAB (Cetyltrimethylammonium bromide), and DTAB (dodecyltrimethylammonium bromide)] and zwitterionic [CHAPS (3[(3-Cholamidopropyl)dimethylammonio]propanesulfonic acid), CHAPSO (3-([3-Cholamidopropyl]dimethylammonio)-2-hydroxy-1-propanesulfonate), and Sulfobetaine 3-10 ([…]-N,N-dimethyl-3-ammonio-1-propanesulfonate)]. Detergents were obtained from Sigma, Fluka and Aldrich.
L929 cells (ATCC CCL-1; 1.5×10^5 cells/ml) in F12/DMEM (Hyclone, SH30023) containing 10% horse serum (Hyclone, SH30074) were frozen and thawed for four cycles to create a cell lysate. Then 50 μl of stock detergent solutions [10%, 5.0%, 1.0%, and 0.5% (w/v)] were separately added to 450 μl cell lysate, creating a final detergent concentration in the cell lysate sample of 1.0%, 0.5%, 0.1%, and 0.05%, respectively (these percentage values are those used in Tables D and E herein below). Control samples contained either lysate only or 1.0 μM ATP in 15 mM HEPES buffer (pH 7.5). All samples were incubated at 22° C. (room temperature) for the duration of the experiment.
At various timepoints, 20 μl from each sample/detergent mixture was added to a 96-well luminometer plate in triplicate, and then 100 μl of a solution (“luciferase-luciferin” or “L/L reagent”) containing 25 mM HEPES buffer (pH 7.5), 40 μg luciferase enzyme LucPpe2m146 (Promega, E140), 100 μM luciferin (Promega), and 10 mM MgSO4 was added to each well. The L/L reagent was stored at 4° C. for the duration of the experiment and then allowed to reach ambient temperature just before assaying. After mixing the contents of the plate, light output was measured with a Dynex MLX microtiter plate luminometer (Chantilly, Va.), 0.5 second reads per well with the first measurement taken five minutes after the detergent solution was combined with the sample. The average relative light units and the timepoint at which it was measured (rlu; Table D) and percent of remaining luciferase activity at the timepoint (Table E) are reported; controls were run with each set of experimental conditions as indicated. The cationic and anionic detergents were assayed on one day with one set of controls. The zwitterionic and nonionic detergents were assayed on a separate day with a separate set of controls. The DTAB at 0.5% was assayed on both days (1 and 2).
The experiment was performed as detailed in Example 1. The average relative light unit values and the percent of ATP remaining values are listed below in Table F and G respectively.
The log of the percent of ATP remaining after original timepoint values from Table E and Table G were plotted on the y axis against time (in minutes) on the x axis. The slope of the line generated by these values in the presence of detergent was divided by the slope of the line generated by the values in the absence of detergent (lysate control) resulting in the Relative ATPase Activity values listed below in Table H.
A relative activity value of 1.0 or greater indicates 100% cellular ATPase activity at the concentration of detergent tested. A relative activity value of 0.5 indicates a two-fold (or 50%) decrease in the level of cellular ATPase activity at the concentration of detergent tested when compared to the ATPase activity level in the absence of the detergent. A relative activity value of 0.2 indicates a five-fold (or 80%) decrease in the level of cellular ATPase activity at the concentration of detergent tested when compared to the ATPase activity level in the absence of the detergent.

C[C@H](CCC(=O)NCCC[N+](C)(C)CC(O)CS(=O)(=O)[O-])[C@H]1CC[C@H]2[C@@H]3[C@H](O)C[C@@H]4C[C@H](O)CC[C@]4(C)[C@H]3C[C@H](O)[C@]12C (stereo partly drawn) [CHAPSO, 3-([3-Cholamidopropyl]dimethylammonio)-2-hydroxy-1-propanesulfonate]
Average Relative Light Unit Values (0.05% detergent, 5 min): 6396.53 rlu
Percent ATP Remaining (0.05% detergent, 5 min): 100%
Average Relative Light Unit Values (0.05% detergent, 75 min): 2424.54 rlu
Percent ATP Remaining (0.05% detergent, 75 min): 37.9%
Average Relative Light Unit Values (0.05% detergent, 169 min): 1124.83 rlu
Percent ATP Remaining (0.05% detergent, 169 min): 17.6%
Average Relative Light Unit Values (0.05% detergent, 222 min): 480.09 rlu
Percent ATP Remaining (0.05% detergent, 222 min): 7.5%
Average Relative Light Unit Values (0.05% detergent, 260 min): 238.80 rlu
Percent ATP Remaining (0.05% detergent, 260 min): 3.7%
Relative ATPase Activity, slope det/slope lysate (0.05 percent detergent): 1.080
Slope (log percent ATP remaining vs time in minutes) (0.05 percent detergent): −0.0057
Average Relative Light Unit Values (0.1% detergent, 5 min): 6549.85 rlu
Percent ATP Remaining (0.1% detergent, 5 min): 100%
Average Relative Light Unit Values (0.1% detergent, 75 min): 2584.56 rlu
Percent ATP Remaining (0.1% detergent, 75 min): 39.5%
Average Relative Light Unit Values (0.1% detergent, 169 min): 1210.14 rlu
Percent ATP Remaining (0.1% detergent, 169 min): 18.5%
Average Relative Light Unit Values (0.1% detergent, 222 min): 558.69 rlu
Percent ATP Remaining (0.1% detergent, 222 min): 8.5%
Average Relative Light Unit Values (0.1% detergent, 260 min): 280.84 rlu
Percent ATP Remaining (0.1% detergent, 260 min): 4.3%
Relative ATPase Activity, slope det/slope lysate (0.10 percent detergent): 1.030
Slope (log percent ATP remaining vs time in minutes) (0.10 percent detergent): −0.0054
Average Relative Light Unit Values (0.5% detergent, 5 min): 7422.26 rlu
Percent ATP Remaining (0.5% detergent, 5 min): 100%
Average Relative Light Unit Values (0.5% detergent, 75 min): 4089.32 rlu
Percent ATP Remaining (0.5% detergent, 75 min): 55.1%
Average Relative Light Unit Values (0.5% detergent, 169 min): 2581.01 rlu
Percent ATP Remaining (0.5% detergent, 169 min): 34.8%
Average Relative Light Unit Values (0.5% detergent, 222 min): 1460.54 rlu
Percent ATP Remaining (0.5% detergent, 222 min): 19.7%
Average Relative Light Unit Values (0.5% detergent, 260 min): 923.81 rlu
Percent ATP Remaining (0.5% detergent, 260 min): 12.4%
Relative ATPase Activity, slope det/slope lysate (0.50 percent detergent): 0.685
Slope (log percent ATP remaining vs time in minutes) (0.50 percent detergent): −0.0036
Average Relative Light Unit Values (1.0% detergent, 5 min): 7160.63 rlu
Percent ATP Remaining (1.0% detergent, 5 min): 100%
Average Relative Light Unit Values (1.0% detergent, 75 min): 3803.84 rlu
Percent ATP Remaining (1.0% detergent, 75 min): 53.1%
Average Relative Light Unit Values (1.0% detergent, 169 min): 2376.31 rlu
Percent ATP Remaining (1.0% detergent, 169 min): 33.2%
Average Relative Light Unit Values (1.0% detergent, 222 min): 1332.97 rlu
Percent ATP Remaining (1.0% detergent, 222 min): 18.6%
Average Relative Light Unit Values (1.0% detergent, 260 min): 840.57 rlu
Percent ATP Remaining (1.0% detergent, 260 min): 11.7%
Relative ATPase Activity, slope det/slope lysate (1.00 percent detergent): 0.703
Slope (log percent ATP remaining vs time in minutes) (1.00 percent detergent): −0.0037

C[C@H](CCC(=O)N(CCCNC(=O)[C@H](O)[C@@H](O)[C@H](O)[C@H](O)CO)CCCNC(=O)[C@H](O)[C@@H](O)[C@H](O)[C@H](O)CO)[C@H]1CC[C@H]2[C@@H]3[C@H](O)C[C@@H]4C[C@H](O)CC[C@]4(C)[C@H]3C[C@H](O)[C@]12C [BIGCHAP, N,N-bis(3-D-Gluconamidopropyl)cholamide]
Average Relative Light Unit Values (0.05% detergent, 5 min): 6410.42 rlu
Percent ATP Remaining (0.05% detergent, 5 min): 100%
Average Relative Light Unit Values (0.05% detergent, 75 min): 2260.45 rlu
Percent ATP Remaining (0.05% detergent, 75 min): 35.3%
Average Relative Light Unit Values (0.05% detergent, 169 min): 1036.69 rlu
Percent ATP Remaining (0.05% detergent, 169 min): 16.2%
Average Relative Light Unit Values (0.05% detergent, 222 min): 487.72 rlu
Percent ATP Remaining (0.05% detergent, 222 min): 7.6%
Average Relative Light Unit Values (0.05% detergent, 260 min): 238.44 rlu
Percent ATP Remaining (0.05% detergent, 260 min): 3.7%
Relative ATPase Activity, slope det/slope lysate (0.05 percent detergent): 1.069
Slope (log percent ATP remaining vs time in minutes) (0.05 percent detergent): −0.0056
Average Relative Light Unit Values (0.1% detergent, 5 min): 6607.01 rlu
Percent ATP Remaining (0.1% detergent, 5 min): 100%
Average Relative Light Unit Values (0.1% detergent, 75 min): 2087.01 rlu
Percent ATP Remaining (0.1% detergent, 75 min): 31.6%
Average Relative Light Unit Values (0.1% detergent, 169 min): 1363.07 rlu
Percent ATP Remaining (0.1% detergent, 169 min): 20.6%
Average Relative Light Unit Values (0.1% detergent, 222 min): 634.92 rlu
Percent ATP Remaining (0.1% detergent, 222 min): 9.6%
Average Relative Light Unit Values (0.1% detergent, 260 min): 301.55 rlu
Percent ATP Remaining (0.1% detergent, 260 min): 4.6%
Relative ATPase Activity, slope det/slope lysate (0.10 percent detergent): 0.968
Slope (log percent ATP remaining vs time in minutes) (0.10 percent detergent): −0.0051
Average Relative Light Unit Values (0.5% detergent, 5 min): 7438.53 rlu
Percent ATP Remaining (0.5% detergent, 5 min): 100%
Average Relative Light Unit Values (0.5% detergent, 75 min): 3618.22 rlu
Percent ATP Remaining (0.5% detergent, 75 min): 48.6%
Average Relative Light Unit Values (0.5% detergent, 169 min): 2092.69 rlu
Percent ATP Remaining (0.5% detergent, 169 min): 28.1%
Average Relative Light Unit Values (0.5% detergent, 222 min): 1144.80 rlu
Percent ATP Remaining (0.5% detergent, 222 min): 15.4%
Average Relative Light Unit Values (0.5% detergent, 260 min): 677.61 rlu
Percent ATP Remaining (0.5% detergent, 260 min): 9.1%
Relative ATPase Activity, slope det/slope lysate (0.50 percent detergent): 0.782
Slope (log percent ATP remaining vs time in minutes) (0.50 percent detergent): −0.0041
Average Relative Light Unit Values (1.0% detergent, 5 min): 7576.05 rlu
Percent ATP Remaining (1.0% detergent, 5 min): 100%
Average Relative Light Unit Values (1.0% detergent, 75 min): 4043.35 rlu
Percent ATP Remaining (1.0% detergent, 75 min): 53.4%
Average Relative Light Unit Values (1.0% detergent, 169 min): 2474.59 rlu
Percent ATP Remaining (1.0% detergent, 169 min): 32.7%
Average Relative Light Unit Values (1.0% detergent, 222 min): 1374.29 rlu
Percent ATP Remaining (1.0% detergent, 222 min): 18.1%
Average Relative Light Unit Values (1.0% detergent, 260 min): 822.65 rlu
Percent ATP Remaining (1.0% detergent, 260 min): 10.9%
Relative ATPase Activity, slope det/slope lysate (1.00 percent detergent): 0.725
Slope (log percent ATP remaining vs time in minutes) (1.00 percent detergent): −0.0038
